In PMC8593021, “Biophysical and functional characterization of the human TAS1R2 sweet taste receptor overexpressed in a HEK293S inducible cell line” (Scientific Reports, 2021):

How the values were obtained:
[1] = target: T1, hTAS1R2/hTAS1R3 (Homo sapiens, UniProt Q7RTX0+Q8TE23); experiment: Calcium assay (GCaMP6S) in HEK293T-Gα16gust44 cells transfected with hTAS1R2-FLAG and hTAS1R3-FLAG; assay type: cell-based; conditions: HEK293T-Gα16gust44 cells transiently transfected with GCaMP6S
T1 construct: expressed in transfected cells; host or cells: HEK293T cells stably expressing Gα16gust44, transiently transfected
T1 sequence (Q8TE23 20-839): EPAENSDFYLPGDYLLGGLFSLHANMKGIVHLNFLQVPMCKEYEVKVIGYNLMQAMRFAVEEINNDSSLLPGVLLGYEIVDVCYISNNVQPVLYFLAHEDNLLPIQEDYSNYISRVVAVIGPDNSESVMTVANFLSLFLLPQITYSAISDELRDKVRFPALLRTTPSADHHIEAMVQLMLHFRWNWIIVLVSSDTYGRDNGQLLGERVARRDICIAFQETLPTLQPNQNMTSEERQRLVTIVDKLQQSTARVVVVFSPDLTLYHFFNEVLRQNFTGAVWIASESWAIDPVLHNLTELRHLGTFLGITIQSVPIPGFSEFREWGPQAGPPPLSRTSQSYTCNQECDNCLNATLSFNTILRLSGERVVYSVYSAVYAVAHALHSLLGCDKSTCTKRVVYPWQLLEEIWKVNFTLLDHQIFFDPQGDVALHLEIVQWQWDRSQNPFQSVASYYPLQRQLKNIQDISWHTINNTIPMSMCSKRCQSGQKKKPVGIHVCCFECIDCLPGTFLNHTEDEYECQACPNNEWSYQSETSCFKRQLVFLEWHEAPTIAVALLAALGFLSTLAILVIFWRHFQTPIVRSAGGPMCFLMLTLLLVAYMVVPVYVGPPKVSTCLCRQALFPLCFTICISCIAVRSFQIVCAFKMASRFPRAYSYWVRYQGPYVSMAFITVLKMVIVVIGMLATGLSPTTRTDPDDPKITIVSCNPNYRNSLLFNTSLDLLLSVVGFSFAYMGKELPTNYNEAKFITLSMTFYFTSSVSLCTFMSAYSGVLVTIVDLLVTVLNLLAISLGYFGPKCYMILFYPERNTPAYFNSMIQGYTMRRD
T1 sequence (Q7RTX0 21-852): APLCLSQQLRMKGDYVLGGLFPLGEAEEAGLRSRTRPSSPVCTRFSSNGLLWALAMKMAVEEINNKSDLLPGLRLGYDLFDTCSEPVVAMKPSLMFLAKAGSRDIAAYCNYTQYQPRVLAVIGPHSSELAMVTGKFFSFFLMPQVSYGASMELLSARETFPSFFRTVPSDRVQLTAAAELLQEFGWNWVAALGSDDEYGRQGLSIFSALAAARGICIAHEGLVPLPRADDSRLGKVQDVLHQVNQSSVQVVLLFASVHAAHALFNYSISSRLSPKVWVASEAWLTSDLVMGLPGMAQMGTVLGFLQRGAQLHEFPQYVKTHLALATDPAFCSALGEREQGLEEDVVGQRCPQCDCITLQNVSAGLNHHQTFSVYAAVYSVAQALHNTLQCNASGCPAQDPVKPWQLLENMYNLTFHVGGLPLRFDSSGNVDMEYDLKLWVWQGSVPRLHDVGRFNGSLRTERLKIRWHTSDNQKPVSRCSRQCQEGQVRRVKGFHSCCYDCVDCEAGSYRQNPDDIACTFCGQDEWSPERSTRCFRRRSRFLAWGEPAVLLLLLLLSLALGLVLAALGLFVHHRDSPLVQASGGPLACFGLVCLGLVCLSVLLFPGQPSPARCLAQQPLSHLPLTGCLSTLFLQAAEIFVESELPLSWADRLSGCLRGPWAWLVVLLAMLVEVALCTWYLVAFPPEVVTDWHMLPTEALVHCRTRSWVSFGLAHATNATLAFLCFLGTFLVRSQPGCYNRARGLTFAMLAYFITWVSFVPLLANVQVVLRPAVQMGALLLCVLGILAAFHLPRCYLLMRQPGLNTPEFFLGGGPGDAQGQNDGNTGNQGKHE
Description: (§1) We used a calcium imaging assay to establish dose–response curves for the sweet taste receptor hTAS1R2/hTAS1R3 and determine EC50 values for the sweet stimuli previously tested in spectrofluorimetric experiments. We cloned the cDNAs coding hTAS1R2 and hTAS1R3 subunits into pcDNA6 and pcDNA4 expression plasmids, respectively, and we added FLAG tag to C-terminus of each construct to measure protein expression level by immunocytochemistry as described previously. HEK293T cells stably transfected with Gα16gust44 were seeded at a density of 0.35 × 10^6 cells per well into 96-well black walled, clear bottom microtiter plates (Falcon) in high-glucose DMEM supplemented with 2 mM GlutaMAX, 10% dialyzed foetal bovine serum, penicillin/streptomycin and G418 (400 µg/mL) at 37 °C and 6.3% CO2, in a humidified atmosphere. After 48 h, the cells were transiently transfected with each TAS1R subunit (60 ng/well for each plasmid) and plasmid pGP-CMV-GCaMP6S (Addgene #40753, 50 ng per well) coding for a green fluorescent protein-based calcium indicator, using Fugene HD (0.4 µL/well). After a further 24 h incubation, the cells were washed twice with buffer C1 and then stimulated with sweet tasting compounds. After excitation at 488 nm, calcium responses were recorded at 510 nm using a Molecular Devices FlexStation 3 system. Acquisition was made simultaneously from 8 wells corresponding to the range of taste solutions. We averaged the responses of 18 wells receiving the same stimulus one three independent experiments. We subtracted the mean calcium traces of mock-transfected cells stimulated with the same concentration of stimulus. Plots of the fluorescence variation amplitude versus concentration were fitted by four-parameter logistic nonlinear regression allowing us to calculate the EC50 values of activation.

[2] = target: T2, hTAS1R2 (Homo sapiens, UniProt Q8TE23); experiment: Calcium assay (GCaMP6S) in HEK293T-Gα16gust44 cells transfected with hTAS1R2-FLAG alone; assay type: cell-based; conditions: HEK293T-Gα16gust44 cells transiently transfected with GCaMP6S and hTAS1R2-FLAG alone
T2 sequence (Q8TE23 20-839): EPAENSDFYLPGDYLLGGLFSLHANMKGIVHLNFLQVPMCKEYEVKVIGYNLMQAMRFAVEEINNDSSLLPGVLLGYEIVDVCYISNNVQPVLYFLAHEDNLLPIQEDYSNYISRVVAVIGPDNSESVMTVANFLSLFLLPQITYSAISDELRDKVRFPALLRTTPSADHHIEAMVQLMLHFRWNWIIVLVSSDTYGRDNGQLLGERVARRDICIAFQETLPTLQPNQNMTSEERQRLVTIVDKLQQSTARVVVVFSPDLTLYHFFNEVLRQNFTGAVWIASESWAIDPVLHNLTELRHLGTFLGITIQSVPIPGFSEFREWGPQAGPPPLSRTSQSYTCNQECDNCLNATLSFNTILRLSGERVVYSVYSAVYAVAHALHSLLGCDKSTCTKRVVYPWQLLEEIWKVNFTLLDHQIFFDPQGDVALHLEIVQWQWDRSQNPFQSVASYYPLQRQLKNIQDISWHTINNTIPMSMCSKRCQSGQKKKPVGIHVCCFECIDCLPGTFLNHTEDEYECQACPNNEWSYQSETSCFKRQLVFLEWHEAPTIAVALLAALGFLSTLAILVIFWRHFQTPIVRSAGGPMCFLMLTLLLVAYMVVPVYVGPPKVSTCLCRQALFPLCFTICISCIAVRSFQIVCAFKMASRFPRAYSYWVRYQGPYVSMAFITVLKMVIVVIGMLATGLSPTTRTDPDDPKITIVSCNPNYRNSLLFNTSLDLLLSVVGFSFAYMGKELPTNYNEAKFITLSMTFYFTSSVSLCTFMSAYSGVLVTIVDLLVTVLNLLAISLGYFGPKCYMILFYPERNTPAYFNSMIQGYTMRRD
Description: as §1, with “After a further 24 h incubation, the cells were washed twice with buffer C1 and then stimulated with sweet tasting compounds.” left out, “Acquisition was made simultaneously from 8 wells corresponding to the range of taste solutions. We averaged the responses of 18 wells receiving the same stimulus one three independent experiments. We subtracted the mean calcium traces of mock-transfected cells stimulated with the same concentration of stimulus.” left out

[3] = target: T3, hTAS1R3 (Homo sapiens, UniProt Q7RTX0); experiment: Calcium assay (GCaMP6S) in HEK293T-Gα16gust44 cells transfected with hTAS1R3-FLAG alone; assay type: cell-based; conditions: HEK293T-Gα16gust44 cells transiently transfected with GCaMP6S and hTAS1R3-FLAG alone
T3 construct: expressed in transfected cells; host or cells: HEK293T cells stably expressing Gα16gust44, transiently transfected
T3 sequence (Q7RTX0 21-852): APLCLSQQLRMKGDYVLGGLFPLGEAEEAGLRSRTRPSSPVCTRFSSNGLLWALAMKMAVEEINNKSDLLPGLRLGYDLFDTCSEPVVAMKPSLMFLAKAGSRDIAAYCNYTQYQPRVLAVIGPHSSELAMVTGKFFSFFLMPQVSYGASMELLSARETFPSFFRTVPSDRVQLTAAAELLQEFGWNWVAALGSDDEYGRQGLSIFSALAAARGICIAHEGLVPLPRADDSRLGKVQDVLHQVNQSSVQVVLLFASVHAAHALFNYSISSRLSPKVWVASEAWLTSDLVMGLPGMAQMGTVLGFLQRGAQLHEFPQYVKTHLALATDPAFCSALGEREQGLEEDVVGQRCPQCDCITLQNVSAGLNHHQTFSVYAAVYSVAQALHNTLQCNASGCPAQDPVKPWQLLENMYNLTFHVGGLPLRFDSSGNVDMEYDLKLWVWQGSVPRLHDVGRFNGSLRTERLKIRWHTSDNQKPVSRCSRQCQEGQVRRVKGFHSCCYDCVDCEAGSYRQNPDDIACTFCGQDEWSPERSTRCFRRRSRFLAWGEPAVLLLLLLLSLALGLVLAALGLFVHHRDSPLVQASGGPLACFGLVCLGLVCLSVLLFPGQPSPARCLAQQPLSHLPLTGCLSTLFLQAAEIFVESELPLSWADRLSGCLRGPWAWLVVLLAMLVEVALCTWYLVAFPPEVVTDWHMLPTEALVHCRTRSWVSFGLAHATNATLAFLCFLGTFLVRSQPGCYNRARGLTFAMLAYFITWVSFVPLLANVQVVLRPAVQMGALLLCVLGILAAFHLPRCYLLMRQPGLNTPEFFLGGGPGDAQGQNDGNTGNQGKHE
Description: as §1

[4] = target: T2, hTAS1R2; experiment: Intrinsic tryptophan fluorescence ligand binding to purified detergent-solubilized hTAS1R2; design: made in house; conditions: purified FLAG-tagged hTAS1R2 0.10 µM in PBS, 0.1% LMNG, 20 °C; λex 280 nm, λem 340 nm
Procedure: Intrinsic fluorescence spectra were recorded with a Cary Eclipse spectrofluorimeter (Varian Instruments, Les Ulis, France) equipped with a Peltier temperature control unit. The temperature was maintained at 20 °C. FLAG-tagged hTAS1R2 protein (0.10 µM in PBS, 0.1% LMNG buffer) was excited at 280 nm, and the emission spectra were recorded from 300 to 400 nm, with a 10 nm bandwidth for both excitation and emission in the presence and absence of ligands. The sweetener solutions were freshly prepared in PBS-0.1% LMNG buffer. Successive aliquots of ligand solutions were added to 400 µL of the FLAG-tagged hTAS1R2 solution. […] The fluorescence measurements were corrected for bleaching and nonspecific buffer quenching. The dissociation constants (Kd) were calculated from a plot of the fluorescence intensity measured at the maximum emission wavelength (340 nm) versus the concentration of total ligand obtained with a standard nonlinear regression method using SigmaPlot software (Systat Software Inc., San Jose, CA, USA). The reported Kd values are the average of triplicate measurements performed on at least three independently purified protein samples.

[5] = target: the molecule itself; experiment: SEC-MALS; pooled gel filtration peak 4 (fractions 14-16) of FLAG-tagged hTAS1R2; Superdex 200 Increase 3.2/300, PBS with 0.1% LMNG, pH 7.3, 0.1 mL/min; MALS, RI and UV (280 nm) detectors; protein-detergent complexes

Row | Molecule | EC50 [1] [µM] | EC50 [2] [µM] | EC50 hTAS1R3 [3] | Kd [4] [µM] | stoichiometry N [5]
1 | C=C(C)C1CC=C(/C=N/O)CC1 (stereo in doubt) [Perillartine, perillartine] | 2.54 ± 0.48 | 61 ± 13 | n.r. | 373 ± 110 | 
2 | COC(=O)[C@H](Cc1ccccc1)NC(=O)[C@H](CC(=O)O)NCCC(C)(C)C [Neotame, neotame] | 0.9 ± 0.09 |  | n.r. | 2.78 ± 0.69 | 
3 | OC[C@H]1O[C@H](O[C@]2(CCl)O[C@H](CCl)[C@@H](O)[C@@H]2O)[C@H](O)[C@@H](O)[C@H]1Cl [Sucralose, sucralose] | 36 ± 2 |  | n.r. | 29 ± 8 | 
4 | O=S(=O)(O)NC1CCCCC1 [Cyclamate-Na, cyclamate-Na] | 767 ± 83 |  | n.r. |  | 
5 | CC1=CC(=O)NS(=O)(=O)O1 [Acesulfame-K, acesulfame-K] | 213 ± 59 |  | n.r. | 164 ± 53 | 
6 | FLAG-tagged human TAS1R2 (taste receptor type 1, member 2) (receptor, UniProt Q8TE23 20-839, looked up, human TAS1R2 (taste receptor type 1, member 2), UniProtKB Q8TE23, full-length protein from a codon-optimised synthetic gene; the purified protein is still detected and captured by anti-FLAG M2; Theoretical mass of FLAG-tagged hTAS1R2 printed as 96.2 kDa; In LMNG detergent; also called hTAS1R2; FLAG-hTAS1R2; not shown: FLAG, N-terminal, kept) EPAENSDFYLPGDYLLGGLFSLHANMKGIVHLNFLQVPMCKEYEVKVIGYNLMQAMRFAVEEINNDSSLLPGVLLGYEIVDVCYISNNVQPVLYFLAHEDNLLPIQEDYSNYISRVVAVIGPDNSESVMTVANFLSLFLLPQITYSAISDELRDKVRFPALLRTTPSADHHIEAMVQLMLHFRWNWIIVLVSSDTYGRDNGQLLGERVARRDICIAFQETLPTLQPNQNMTSEERQRLVTIVDKLQQSTARVVVVFSPDLTLYHFFNEVLRQNFTGAVWIASESWAIDPVLHNLTELRHLGTFLGITIQSVPIPGFSEFREWGPQAGPPPLSRTSQSYTCNQECDNCLNATLSFNTILRLSGERVVYSVYSAVYAVAHALHSLLGCDKSTCTKRVVYPWQLLEEIWKVNFTLLDHQIFFDPQGDVALHLEIVQWQWDRSQNPFQSVASYYPLQRQLKNIQDISWHTINNTIPMSMCSKRCQSGQKKKPVGIHVCCFECIDCLPGTFLNHTEDEYECQACPNNEWSYQSETSCFKRQLVFLEWHEAPTIAVALLAALGFLSTLAILVIFWRHFQTPIVRSAGGPMCFLMLTLLLVAYMVVPVYVGPPKVSTCLCRQALFPLCFTICISCIAVRSFQIVCAFKMASRFPRAYSYWVRYQGPYVSMAFITVLKMVIVVIGMLATGLSPTTRTDPDDPKITIVSCNPNYRNSLLFNTSLDLLLSVVGFSFAYMGKELPTNYNEAKFITLSMTFYFTSSVSLCTFMSAYSGVLVTIVDLLVTVLNLLAISLGYFGPKCYMILFYPERNTPAYFNSMIQGYTMRRD |  |  |  |  | 2
